PubChem BioAssay AID2060906 (Molecular Pharmacology Branch, DTP, NCI, 2025)
Values belong to the molecule of their own block, whether it stands above or below them.

Test system: 485176-168-R4-J1-PDC complex spheroid growth
Assay: Anticancer human tumor 485176-168-R4-J1-PDC patient-derived pancreatic adenocarcinoma cell line growth inhibition [RAS]
Settings: for IC50: curve of first compound; for viability, T/C: stronger effect = lower value
Procedure, shortened: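 Multi-cell-type spheroids: tumor cells plus HUVEC endothelial cells and mesenchymal stem cells. RAS-pathway inhibitors were combined with targeted agents, each dosed in half-log steps down from clinical Cmax, or from 10 microM when Cmax was unknown.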

[1] = second compound 0.000949 µM, first compound 0.0316 µM
[2] = second compound 0.000949 µM, first compound 0.1 µM
[3] = second compound 0.000949 µM, first compound 0.316 µM
[4] = second compound 0.000949 µM, first compound 1 µM
[5] = second compound 0.000949 µM, first compound 3.16 µM
[6] = second compound 0.000949 µM, first compound 10 µM
[7] = second compound 0.003 µM, first compound 0.0316 µM
[8] = second compound 0.003 µM, first compound 0.1 µM
[9] = second compound 0.003 µM, first compound 0.316 µM
[10] = second compound 0.003 µM, first compound 1 µM
[11] = second compound 0.003 µM, first compound 3.16 µM
[12] = second compound 0.003 µM, first compound 10 µM
[13] = second compound 0.00949 µM, first compound 0.0316 µM
[14] = second compound 0.00949 µM, first compound 0.1 µM
[15] = second compound 0.00949 µM, first compound 0.316 µM
[16] = second compound 0.00949 µM, first compound 1 µM
[17] = second compound 0.00949 µM, first compound 3.16 µM
[18] = second compound 0.00949 µM, first compound 10 µM
[19] = second compound 0.03 µM, first compound 0.0316 µM
[20] = second compound 0.03 µM, first compound 0.1 µM
[21] = second compound 0.03 µM, first compound 0.316 µM
[22] = second compound 0.03 µM, first compound 1 µM
[23] = second compound 0.03 µM, first compound 3.16 µM
[24] = second compound 0.03 µM, first compound 10 µM
[25] = second compound 0.0949 µM, first compound 0.0316 µM
[26] = second compound 0.0949 µM, first compound 0.1 µM
[27] = second compound 0.0949 µM, first compound 0.316 µM
[28] = second compound 0.0949 µM, first compound 1 µM
[29] = second compound 0.0949 µM, first compound 3.16 µM
[30] = second compound 0.0949 µM, first compound 10 µM
[31] = second compound 0.3 µM, first compound 0.0316 µM
[32] = second compound 0.3 µM, first compound 0.1 µM
[33] = second compound 0.3 µM, first compound 0.316 µM
[34] = second compound 0.3 µM, first compound 1 µM
[35] = second compound 0.3 µM, first compound 3.16 µM
[36] = second compound 0.3 µM, first compound 10 µM
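Note: spheroids exposed to compounds for seven days before readout.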
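Throughout, for viability, T/C: luminescence viability expressed relative to DMSO vehicle wells set as 100%.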

- IC50 (second compound 0.000949 µM): 3.41 µM
- IC50 (second compound 0.003 µM): 3.17 µM
- IC50 (second compound 0.00949 µM): 3.39 µM
- IC50 (second compound 0.03 µM): 3.31 µM
- IC50 (second compound 0.0949 µM): 3.32 µM
- IC50 (second compound 0.3 µM): 1.68 µM
SMILES: CC1(O)CCCC1n1c(=O)c(C(F)F)cc2cnc(NC3CCN(S(C)(=O)=O)CC3)nc21 (centres undefined) + CCn1c(-c2cccnc2C(C)OC)c2c3cc(ccc31)N1CCOC(CC(NC(=O)C(C(C)C)N(C)C(=O)C3(F)CCN(C(=O)C#CC(C)(C)N(C)C)CC3)C(=O)N3CCCC(N3)C(=O)OCC(C)(C)C2)C1
- viability, T/C [1]: 114%
- viability, T/C [2]: 75%
- viability, T/C [3]: 70.6%
- viability, T/C [4]: 78.2%
- viability, T/C [5]: 60.8%
- viability, T/C [6]: 4.58%
- viability, T/C [7]: 103%
- viability, T/C [8]: 92.7%
- viability, T/C [9]: 76.6%
- viability, T/C [10]: 72.8%
- viability, T/C [11]: 57%
- viability, T/C [12]: 3.48%
- viability, T/C [13]: 90.4%
- viability, T/C [14]: 74.7%
- viability, T/C [15]: 60.6%
- viability, T/C [16]: 69.8%
- viability, T/C [17]: 57%
- viability, T/C [18]: 3.15%
- viability, T/C [19]: 110%
- viability, T/C [20]: 78.7%
- viability, T/C [21]: 87.2%
- viability, T/C [22]: 65.9%
- viability, T/C [23]: 63.5%
- viability, T/C [24]: 2.51%
- viability, T/C [25]: 89.2%
- viability, T/C [26]: 76.2%
- viability, T/C [27]: 69.6%
- viability, T/C [28]: 68.1%
- viability, T/C [29]: 56.1%
- viability, T/C [30]: 2.02%
- viability, T/C [31]: 78.7%
- viability, T/C [32]: 70.5%
- viability, T/C [33]: 58.1%
- viability, T/C [34]: 54.6%
- viability, T/C [35]: 47.8%
- viability, T/C [36]: 3.3%

- IC50 (second compound 0.000949 µM): 1.26 µM
- IC50 (second compound 0.003 µM): 1.44 µM
- IC50 (second compound 0.00949 µM): 1.27 µM
- IC50 (second compound 0.03 µM): 1.08 µM
- IC50 (second compound 0.0949 µM): 1.01 µM
- IC50 (second compound 0.3 µM): 0.521 µM
SMILES: CCC(CC)c1cc(NC2CCC(N)C2)n2nccc2n1 (centres undefined) + CCn1c(-c2cccnc2C(C)OC)c2c3cc(ccc31)N1CCOC(CC(NC(=O)C(C(C)C)N(C)C(=O)C3(F)CCN(C(=O)C#CC(C)(C)N(C)C)CC3)C(=O)N3CCCC(N3)C(=O)OCC(C)(C)C2)C1
- viability, T/C [1]: 94.6%
- viability, T/C [2]: 117%
- viability, T/C [3]: 86%
- viability, T/C [4]: 64.1%
- viability, T/C [5]: 2.09%
- viability, T/C [6]: 0.42%
- viability, T/C [7]: 105%
- viability, T/C [8]: 104%
- viability, T/C [9]: 100%
- viability, T/C [10]: 72.1%
- viability, T/C [11]: 2.19%
- viability, T/C [12]: 0.46%
- viability, T/C [13]: 88.4%
- viability, T/C [14]: 79.7%
- viability, T/C [15]: 98.8%
- viability, T/C [16]: 62.6%
- viability, T/C [17]: 2.5%
- viability, T/C [18]: 0.59%
- viability, T/C [19]: 96%
- viability, T/C [20]: 105%
- viability, T/C [21]: 95.9%
- viability, T/C [22]: 53.7%
- viability, T/C [23]: 2.5%
- viability, T/C [24]: 0.41%
- viability, T/C [25]: 87%
- viability, T/C [26]: 77.3%
- viability, T/C [27]: 94.2%
- viability, T/C [28]: 50.3%
- viability, T/C [29]: 2.64%
- viability, T/C [30]: 0.46%
- viability, T/C [31]: 82.9%
- viability, T/C [32]: 72.8%
- viability, T/C [33]: 64.5%
- viability, T/C [34]: 32.7%
- viability, T/C [35]: 2.76%
- viability, T/C [36]: 0.53%
